Like-named read-outs stand apart in the source and are kept apart here.
How the values were obtained:
[1] = test system: influenza A virus (A/PR/8/34); experiment: microbe, parasite or virus in culture; assay type: cell-based
[2] = test system: influenza A virus (A/PR/8/34); experiment: MDCK cytopathic effect (CPE) cell protection assay, ATP detection; assay type: cell-based; conditions: Influenza A virus, PR/8, MDCK
[3] = Influenza A virus, PR/8, Table 1, mean all, class symbol, read-out: bDNA EC99
[4] = Influenza A virus, PR/8, Table 1, viral RNA 50% of control wells, mean all, class symbol, read-out: bDNA EC50
[5] = 72 h, Table 1, MDCK cells, A/PR/8/34, 72 hours, 50% cell protection, mean all, class symbol, read-out: MDCK IC50
[6] = Table 2, class symbol in brackets, read-out: MDCK cell IC50 (uM), class
[7] = Table 2, comparison compounds of WO2005/095400, mean value, read-out: MDCK cell IC50

## CNS(=O)(=O)C[C@@H](Nc1nc(-c2c[nH]c3ncc(F)cc23)c(C#N)cc1F)C(C)(C)C [Compound 26, (S)-2-(5-Cyano-3-fluoro-6-(5-fluoro-1H-pyrrolo[2,3-b]pyridin-3-yl)pyridin-2ylamino)-N,3,3-trimethylbutane-1-sulfonamide]
[1]; [3]
  EC99: < 0.3 µM
[1]; [4]
  EC50: < 300 nM

## CC(C)(C)[C@@H](CCC(=O)O)Nc1nc(-c2c[nH]c3ncc(F)cc23)ncc1F [Compound 20, (R)-4-((5-fluoro-2-(5-fluoro-1H-pyrrolo[2,3-b]pyridin-3-yl)pyrimidin-4-yl)amino)-5,5-dimethylhexanoic acid]
[2]; [5]
  IC50: < 0.3 µM
[1]; [3]
  EC99: < 0.3 µM
[1]; [4]
  EC50: < 300 nM

## CC(C)(C)[C@@H](CS(=O)(=O)O)Nc1nc(-c2c[nH]c3ncc(Cl)cc23)ncc1F [Compound 10, (S)-2-((2-(5-chloro-1H-pyrrolo[2,3-b]pyridin-3-yl)-5-fluoropyrimidin-4-yl)amino)-3,3-dimethylbutane-1-sulfonic acid]
[2]; [5]
  IC50: < 0.3 µM
[1]; [3]
  EC99: < 0.3 µM
[1]; [4]
  EC50: < 300 nM

## Clc1cnc2[nH]cc(-c3cccc(NC4CCCCC4)n3)c2c1 [Compound C1, reference compound]
[2]; [6]
  IC50: > 3.3 µM
[2]; [7]
  IC50: > 20 µM

## CCOC(=O)CC[C@@H](Nc1nc(-c2c[nH]c3ncc(F)cc23)ncc1F)C(C)(C)C [Compound 23, (R)-ethyl 4-((5-fluoro-2-(5-fluoro-1H-pyrrolo[2,3-b]pyridin-3-yl)pyrimidin-4-yl)amino)-5,5-dimethylhexanoate]
[2]; [5]
  IC50: 0.3 to 3.3 µM
[1]; [3]
  EC99: > 3.3 µM
[1]; [4]
  EC50: 300 to 3300 nM

## CC(C)(C)[C@@H](CC(=O)O)Nc1nc(-c2c[nH]c3ncc(F)cc23)c(C#N)cc1F [Compound 7, (R)-3-(5-cyano-3-fluoro-6-(5-fluoro-1H-pyrrolo[2,3-b]pyridin-3-yl)pyridin-2-ylamino)-4,4-dimethylpentanoic acid]
[2]; [5]
  IC50: < 0.3 µM
[1]; [3]
  EC99: < 0.3 µM
[1]; [4]
  EC50: < 300 nM

## CC(C)(C)[C@H](CC(=O)O)Nc1nc(-c2c[nH]c3ncc(Cl)cc23)ncc1F [Compound 3, (S)-3-((2-(5-chloro-1H-pyrrolo[2,3-b]pyridin-3-yl)-5-fluoropyrimidin-4-yl)amino)-4,4-dimethylpentanoic acid]
[2]; [5]
  IC50: 0.3 to 3.3 µM
[1]; [3]
  EC99: > 3.3 µM
[1]; [4]
  EC50: 300 to 3300 nM

## CC1(C(CC(=O)O)Nc2nc(-c3c[nH]c4ncc(F)cc34)ncc2F)CCCCC1 (stereo not shown) [Compound 78, 3-(5-fluoro-2-(5-fluoro-1H-pyrrolo[2,3-b]pyridin-3-yl)pyrimidin-4-ylamino)-3-(1-methylcyclohexyl)propanoic acid]
[2]; [5]
  IC50: < 0.3 µM
[1]; [3]
  EC99: 0.3 to 3.3 µM
[1]; [4]
  EC50: < 300 nM

## CCOC(=O)CC(Nc1nc(-c2c[nH]c3ncc(F)cc23)ncc1F)C1(C)CCCCC1 (racemic) [Compound 77, (+/−)-ethyl 3-(5-fluoro-2-(5-fluoro-1H-pyrrolo[2,3-b]pyridin-3-yl)pyrimidin-4-ylamino)-3-(1-methylcyclohexyl)propanoate]
[2]; [5]
  IC50: > 3.3 µM
[1]; [3]
  EC99: > 3.3 µM
[1]; [4]
  EC50: 300 to 3300 nM

## CC(C)(C)[C@H](CC(=O)O)Nc1nc(-c2c[nH]c3ncc(F)cc23)ncc1F [Compound 4, (S)-3-((5-fluoro-2-(5-fluoro-1H-pyrrolo[2,3-b]pyridin-3-yl)pyrimidin-4-yl)amino)-4,4-dimethylpentanoic acid]
[2]; [5]
  IC50: > 3.3 µM
[1]; [3]
  EC99: > 3.3 µM
[1]; [4]
  EC50: > 3300 nM

## CC(C)(C)C(Cc1cc(O)no1)Nc1nc(-c2c[nH]c3ncc(F)cc23)ncc1F (racemic) [Compound 62, (+/−)-5-(2-((5-fluoro-2-(5-fluoro-1H-pyrrolo[2,3-b]pyridin-3-yl)pyrimidin-4-yl)amino)-3,3-dimethylbutyl)isoxazol-3-ol]
[2]; [5]
  IC50: < 0.3 µM
[1]; [3]
  EC99: 0.3 to 3.3 µM
[1]; [4]
  EC50: 300 to 3300 nM

## CC1(C(CC(=O)O)Nc2nc(-c3c[nH]c4ncc(F)cc34)ncc2F)CC1 (stereo not shown) [Compound 74]
[2]; [5]
  IC50: 0.3 to 3.3 µM
[1]; [3]
  EC99: 0.3 to 3.3 µM
[1]; [4]
  EC50: 300 to 3300 nM

## CC1(C(CC(=O)O)Nc2nc(-c3n[nH]c4ncc(F)cc34)ncc2F)CCCC1 (racemic) [Compound 12, (+/−)-3-(5-fluoro-2-(5-fluoro-1H-pyrazolo[3,4-b]pyridin-3-yl)pyrimidin-4-ylamino)-3-(1-methylcyclopentyl)propanoic acid]
[2]; [5]
  IC50: < 0.3 µM
[1]; [3]
  EC99: < 0.3 µM
[1]; [4]
  EC50: < 300 nM

## CC(C)(C)[C@@H](CS(=O)(=O)NC1CC1)Nc1nc(-c2c[nH]c3ncc(F)cc23)c(C#N)cc1F [Compound 28, (S)-2-(5-Cyano-3-fluoro-6-(5-fluoro-1H-pyrrolo[2,3-b]pyridin-3-yl)pyridin-2ylamino)-N-cyclopropyl-3,3-dimethylbutane-1-sulfonamide]
[1]; [3]
  EC99: < 0.3 µM
[1]; [4]
  EC50: < 300 nM

## CC(C)(C)[C@@H](CS(=O)(=O)O)Nc1nc(-c2c[nH]c3ncc(F)cc23)c(C#N)cc1F [Compound 25, (S)-2-(5-cyano-3-fluoro-6-(5-fluoro-1H-pyrrolo[2,3-b]pyridin-3-yl)pyridin-2-ylamino)-3,3-dimethylbutane-1-sulfonic acid]
[2]; [5]
  IC50: < 0.3 µM
[1]; [3]
  EC99: < 0.3 µM
[1]; [4]
  EC50: < 300 nM

## CCNS(=O)(=O)C[C@@H](Nc1nc(-c2c[nH]c3ncc(F)cc23)ncc1F)C(C)(C)C [Compound 33, (S)—N-Ethyl-2-(5-fluoro-2-(5-fluoro-1H-pyrrolo[2,3-b]pyridin-3-yl)pyrimidin-4-ylamino)-3,3-dimethylbutane-1-sulfonamide]
[2]; [5]
  IC50: < 0.3 µM
[1]; [3]
  EC99: < 0.3 µM
[1]; [4]
  EC50: < 300 nM

## CC(C)(CF)C(CC(=O)O)Nc1nc(-c2c[nH]c3ncc(F)cc23)ncc1F (racemic) [Compound 76, (+/−)-5-Fluoro-3-((5-fluoro-2-(5-fluoro-1H-pyrrolo[2,3-b]pyridin-3-yl)pyrimidin-4-yl)amino)-4,4-dimethylpentanoic acid]
[2]; [5]
  IC50: 0.3 to 3.3 µM
[2]; exemplary data, MDCK cell protection, read-out: IC50
  IC50: 0.423 µM
[1]; [3]
  EC99: 0.3 to 3.3 µM
[1]; [4]
  EC50: < 300 nM
[1]; Influenza A virus, PR/8, exemplary data, bDNA, read-out: EC50
  EC50: 250 nM
[1]; exemplary data, bDNA
  EC99: 1.4 µM

## CC(C)(C)[C@@H](CO)Nc1nc(-c2c[nH]c3ncc(Cl)cc23)ncc1F [Compound 49, (S)-2-((2-(5-chloro-1H-pyrrolo[2,3-b]pyridin-3-yl)-5-fluoropyrimidin-4-yl)amino)-3,3-dimethylbutan-1-ol]
[2]; [5]
  IC50: < 0.3 µM
[1]; [3]
  EC99: 0.3 to 3.3 µM
[1]; [4]
  EC50: < 300 nM

## CC(C)(C)[C@@H](CO)Nc1nc(-c2c[nH]c3ncc(F)cc23)ncc1F [Compound 32, (S)-2-(5-fluoro-2-(5-fluoro-1H-pyrrolo[2,3-b]pyridin-3-yl)pyrimidin-4-ylamino)-3,3-dimethylbutane-1-ol]
[2]; [5]
  IC50: < 0.3 µM
[1]; [3]
  EC99: < 0.3 µM
[1]; [4]
  EC50: < 300 nM

## CC(C)(C)[C@@H](CS(=O)(=O)NC1CC1)Nc1nc(-c2c[nH]c3ncc(F)cc23)ncc1F [Compound 21, (S)—N-Cyclopropyl-2-(5-fluoro-2-(5-fluoro-1H-pyrrolo[2,3-b]pyridin-3-yl)pyrimidin-4-ylamino)-3,3-dimethylbutane-1-sulfonamide]
[2]; [5]
  IC50: < 0.3 µM
[1]; [3]
  EC99: < 0.3 µM
[1]; [4]
  EC50: < 300 nM

## CC(C)(C)C(C[S@+]([O-])CC(=O)O)Nc1nc(-c2c[nH]c3ncc(F)cc23)ncc1F (stereo partly drawn) [Compound 64, 2-((S)-2-(5-fluoro-2-(5-fluoro-1H-pyrrolo[2,3-b]pyridin-3-yl)pyrimidin-4-ylamino)-3,3-dimethylbutylsulfinyl)ethanoic acid]
[1]; [3]
  EC99: > 3.3 µM
[1]; [4]
  EC50: < 300 nM

## O=C(O)CC(Nc1nc(-c2c[nH]c3ncc(Cl)cc23)ncc1F)C12CC3CC(CC(C3)C1)C2 (racemic) [Compound 94, (+/−)-3-(1-Adamantyl)-3-[[2-(5-chloro-1H-pyrrolo[2,3-b]pyridin-3-yl)-5-fluoro-pyrimidin-4-yl]amino]propanoic acid]
[2]; [5]
  IC50: < 0.3 µM
[1]; [3]
  EC99: < 0.3 µM
[1]; [4]
  EC50: < 300 nM

## Clc1cnc2[nH]cc(-c3cccc(NCC4CCCNC4)n3)c2c1 (stereo not shown) [Compound C2, reference compound]
[2]; [6]
  IC50: > 3.3 µM
[2]; [7]
  IC50: > 20 µM

## COCCNS(=O)(=O)C[C@@H](Nc1nc(-c2c[nH]c3ncc(F)cc23)c(C#N)cc1F)C(C)(C)C [Compound 29, (S)-2-((5-cyano-3-fluoro-6-(5-fluoro-1H-pyrrolo[2,3-b]pyridin-3-yl)pyridin-2-yl)amino)-N-(2-methoxyethyl)-3,3-dimethylbutane-1-sulfonamide]
[1]; [3]
  EC99: 0.3 to 3.3 µM
[1]; [4]
  EC50: < 300 nM

## CC(C)(C)[C@@H](CS(N)(=O)=O)Nc1nc(-c2c[nH]c3ncc(F)cc23)c(C#N)cc1F [Compound 30, (S)-2-((5-cyano-3-fluoro-6-(5-fluoro-1H-pyrrolo[2,3-b]pyridin-3-yl)pyridin-2-yl)amino)-3,3-dimethylbutane-1-sulfonamide]
[1]; [3]
  EC99: < 0.3 µM
[1]; [4]
  EC50: < 300 nM

## CCCNS(=O)(=O)C[C@@H](Nc1nc(-c2c[nH]c3ncc(F)cc23)c(C#N)cc1F)C(C)(C)C [Compound 31, (S)-2-((5-cyano-3-fluoro-6-(5-fluoro-1H-pyrrolo[2,3-b]pyridin-3-yl)pyridin-2-yl)amino)-3,3-dimethyl-N-propylbutane-1-sulfonamide]
[1]; [3]
  EC99: < 0.3 µM
[1]; [4]
  EC50: < 300 nM

## CN(C)S(=O)(=O)C[C@@H](Nc1nc(-c2c[nH]c3ncc(F)cc23)c(C#N)cc1F)C(C)(C)C [Compound 27, (S)-2-(5-Cyano-3-fluoro-6-(5-fluoro-1H-pyrrolo[2,3-b]pyridin-3-yl)pyridin-2ylamino)-N,N,3,3-tetramethylbutane-1-sulfonamide]
[1]; [3]
  EC99: 0.3 to 3.3 µM
[1]; [4]
  EC50: < 300 nM

## CC(O)C[C@@H](Nc1nc(-c2c[nH]c3ncc(F)cc23)ncc1F)C(C)(C)C (stereo partly drawn) [Compound 72, (4R)-4-((5-Fluoro-2-(5-fluoro-1H-pyrrolo[2,3-b]pyridin-3-yl)pyrimidin-4-yl)amino)-5,5-dimethylhexan-2-ol]
[1]; [3]
  EC99: > 3.3 µM

Reference: patent publication US10875855B2 (priority 2011, dated 2020)
